Consider ten compounds from ChEMBL document CHEMBL4004877, “Synthesis and biological evaluation of chalcone, dihydrochalcone, and 1,3-diarylpropane analogs as anti-inflammatory agents” (Bioorg Med Chem Lett, 2017).

In brackets after ≈: the same amount, converted by molar mass.

For orientation: IC50 means the point on the concentration scale where inhibition reaches its midpoint. The term inhibition denotes the percentage by which the read-out fell short of the control.

Series [1] in a line: Cytotoxicity against LPS-stimulated mouse RAW264.7 cells assessed as cell viability at 10 ug/ml after 24 hrs by MTT assay relative to control. In kind it is cell-based. The settings on record: LPS-stimulated RAW264.7 cells, read-out: Activity. On the technique in general: Tetrazolium assays rely on reduction of a dye to a coloured formazan, in cell work by metabolically active cells.

For series [2], the system named is RAW264.7. Put plainly: Antiinflammatory activity in mouse RAW264.7 cells assessed as inhibition of LPS induced iNOS-dependent nitric oxide production after 24 hrs by Griess assay. To be noted: RAW264.7, 24 h. In kind it is functional, cell-based. A general note: Griess reagent forms a coloured azo dye with nitrite.
Series [3] is described as follows: Cytotoxicity against LPS-stimulated mouse RAW264.7 cells assessed as cell viability at 1.25 ug/ml after 24 hrs by MTT assay relative to control. To be noted: LPS-stimulated RAW264.7 cells, read-out: Activity. In kind it is cell-based.
In series [4] the test system is RAW264.7. Put plainly: Antiinflammatory activity in mouse RAW264.7 cells assessed as inhibition of LPS induced iNOS-dependent nitric oxide production at 2.5 ug/ml after 24 hrs by Griess assay relative to control. The class given is functional. To be noted: RAW264.7, 24 h.
Series [5] deals with RAW264.7. Put plainly: Antiinflammatory activity in mouse RAW264.7 cells assessed as inhibition of LPS induced iNOS-dependent nitric oxide production at 10 ug/ml after 24 hrs by Griess assay relative to control. The class given is functional. To be noted: RAW264.7, 24 h.
The nature of series [6]: Cytotoxicity against LPS-stimulated mouse RAW264.7 cells assessed as cell viability at 2.5 ug/ml after 24 hrs by MTT assay relative to control. In kind it is cell-based. To be noted: LPS-stimulated RAW264.7 cells, read-out: Activity.
Series [7] in a line: Cytotoxicity against LPS-stimulated mouse RAW264.7 cells assessed as cell viability at 5 ug/ml after 24 hrs by MTT assay relative to control. In kind it is cell-based. The settings on record: LPS-stimulated RAW264.7 cells, read-out: Activity.
For series [8], the system named is RAW264.7. The series is described as follows: Antiinflammatory activity in mouse RAW264.7 cells assessed as inhibition of LPS induced iNOS-dependent nitric oxide production at 5 ug/ml after 24 hrs by Griess assay relative to control. The class given is functional. The settings on record: RAW264.7, 24 h.
Series [9] has as its system RAW264.7. The series is described as follows: Antiinflammatory activity in mouse RAW264.7 cells assessed as inhibition of LPS induced iNOS-dependent nitric oxide production at 1.25 ug/ml after 24 hrs by Griess assay relative to control. The class given is functional. To be noted: RAW264.7, 24 h.

With `COc1ccc(CCCc2cccc(O)c2)cc1`, the viability at 24 h, 10 ug/ml in [1] turned out to be 76.2%. For the same compound, the IC50 in the series on RAW264.7 [2] is 7.72 µg/mL (≈ 31.9 µM). Moreover, the viability at 24 h, 1.25 ug/ml in series [3] is 99.9%. The inhibition at 2.5 µg/mL in the series on RAW264.7 [4] came out at 20.5%. For the same compound, the inhibition at 10 µg/mL in the series with RAW264.7 [5] came out at 55.9%. For the same compound, in [6], the viability at 24 h, 2.5 ug/ml turned out to be 99.2%. Moreover, the viability at 24 h, 5 ug/ml in [7] was 94.1%. Further, in the series on RAW264.7 [8], the inhibition at 5 µg/mL came to 40.1%. Moreover, the inhibition at 1.25 µg/mL in the series with RAW264.7 [9] was 22.2%.
As to `O=C(/C=C/c1ccc2c(c1)OCO2)c1ccc(O)cc1`, the viability at 24 h, 10 ug/ml in [1] was found to be 68%. Also, the IC50 with RAW264.7 [2] worked out at 9.56 µg/mL (≈ 35.6 µM). Moreover, the viability at 24 h, 1.25 ug/ml in series [3] stood at 99.2%. In addition, the inhibition at 2.5 µg/mL in the series with RAW264.7 [4] amounted to 1.1%. Moreover, the inhibition at 10 µg/mL with RAW264.7 [5] worked out at 52.5%. In addition, the viability at 24 h, 2.5 ug/ml in [6] was determined as 95.2%. Further, the viability at 24 h, 5 ug/ml in series [7] was found to be 88.5%. In the series with RAW264.7 [8], the inhibition at 5 µg/mL was 14.1%. Moreover, the inhibition at 1.25 µg/mL with RAW264.7 [9] is 4.9%.
Consider `COc1cc(C(=O)CCc2cccc(OC)c2OC)ccc1O`, for which, in series [1], the viability at 24 h, 10 ug/ml was found to be 90.5%. Further, the IC50 in the series on RAW264.7 [2] was more than 10 µg/mL. For the same compound, the viability at 24 h, 1.25 ug/ml in series [3] amounted to 94.1%. In the series on RAW264.7 [4], the inhibition at 2.5 µg/mL was determined as 4.4%. In addition, the inhibition at 10 µg/mL with RAW264.7 [5] came to 33.3%. The viability at 24 h, 2.5 ug/ml in series [6] turned out to be 94.5%. For the same compound, the viability at 24 h, 5 ug/ml in [7] was 91.1%. Further, in the series on RAW264.7 [8], the inhibition at 5 µg/mL stood at 15.9%. Also, the inhibition at 1.25 µg/mL with RAW264.7 [9] was 0.1%.
Take `COc1cc(CCCc2ccc3c(c2)OCO3)ccc1O`: the viability at 24 h, 10 ug/ml in series [1] worked out at 58.2%. The IC50 in the series on RAW264.7 [2] was 3.64 µg/mL (≈ 12.7 µM). Also, the viability at 24 h, 1.25 ug/ml in series [3] turned out to be 98.5%. The inhibition at 2.5 µg/mL in the series with RAW264.7 [4] was determined as 46.8%. In addition, the inhibition at 10 µg/mL in the series on RAW264.7 [5] was determined as 78.3%. Moreover, the viability at 24 h, 2.5 ug/ml in series [6] stood at 96.2%. Also, in series [7], the viability at 24 h, 5 ug/ml was determined as 93.3%. For the same compound, in the series with RAW264.7 [8], the inhibition at 5 µg/mL worked out at 52.7%. Also, the inhibition at 1.25 µg/mL in the series on RAW264.7 [9] is 42.4%.
Take `COc1ccc(CCCc2cccc(O)c2)c(OC)c1`: in [1], the viability at 24 h, 10 ug/ml was found to be 67.9%. In the series with RAW264.7 [2], the IC50 was found to be 6.92 µg/mL (≈ 25.4 µM). In series [3], the viability at 24 h, 1.25 ug/ml stood at 98.5%. For the same compound, in the series on RAW264.7 [4], the inhibition at 2.5 µg/mL was 18%. The inhibition at 10 µg/mL in the series on RAW264.7 [5] worked out at 78.8%. In series [6], the viability at 24 h, 2.5 ug/ml was determined as 97%. The viability at 24 h, 5 ug/ml in [7] is 95.9%. Besides, the inhibition at 5 µg/mL in the series on RAW264.7 [8] worked out at 24.6%. The inhibition at 1.25 µg/mL with RAW264.7 [9] was found to be 16.2%.
With `COc1ccc(C(=O)/C=C/c2ccc3c(c2)OCO3)c(O)c1`, the viability at 24 h, 10 ug/ml in [1] amounted to 72%. Besides, the IC50 in the series on RAW264.7 [2] amounted to 1.25 µg/mL (≈ 4.19 µM). Also, in series [3], the viability at 24 h, 1.25 ug/ml was determined as 96.4%. For the same compound, the inhibition at 2.5 µg/mL with RAW264.7 [4] worked out at 5.7%. Also, in the series with RAW264.7 [5], the inhibition at 10 µg/mL turned out to be 8.6%. Further, the viability at 24 h, 2.5 ug/ml in [6] is 91.7%. In addition, the viability at 24 h, 5 ug/ml in series [7] came out at 75.2%. Further, the inhibition at 5 µg/mL in the series with RAW264.7 [8] stood at 3%. For the same compound, the inhibition at 1.25 µg/mL in the series with RAW264.7 [9] stood at 50.2%.
Take `COc1cc(C(=O)/C=C/c2ccc3c(c2)OCO3)ccc1O`: the viability at 24 h, 10 ug/ml in series [1] is 72.7%. Moreover, in the series on RAW264.7 [2], the IC50 was 6.3 µg/mL (≈ 21.1 µM). Besides, the viability at 24 h, 1.25 ug/ml in series [3] was 100%. Moreover, the inhibition at 2.5 µg/mL with RAW264.7 [4] turned out to be 0.6%. For the same compound, the inhibition at 10 µg/mL in the series on RAW264.7 [5] came out at 51.8%. In [6], the viability at 24 h, 2.5 ug/ml was 85.3%. Also, in [7], the viability at 24 h, 5 ug/ml was found to be 81.1%. Also, the inhibition at 5 µg/mL in the series with RAW264.7 [8] worked out at 49.1%. For the same compound, in the series on RAW264.7 [9], the inhibition at 1.25 µg/mL stood at 5.3%.
For the compound `COc1ccc(CCC(=O)c2ccc(OC)c(OC)c2)cc1`, in series [1], the viability at 24 h, 10 ug/ml was determined as 90.6%. Besides, in the series with RAW264.7 [2], the IC50 was 4.35 µg/mL (≈ 14.5 µM). Besides, the viability at 24 h, 1.25 ug/ml in series [3] is 99.1%. Further, the inhibition at 2.5 µg/mL in the series on RAW264.7 [4] came to 32.5%. Also, in the series on RAW264.7 [5], the inhibition at 10 µg/mL turned out to be 57.2%. Also, in [6], the viability at 24 h, 2.5 ug/ml was determined as 98.6%. The viability at 24 h, 5 ug/ml in [7] was determined as 95.1%. For the same compound, the inhibition at 5 µg/mL with RAW264.7 [8] came out at 54.4%. In addition, the inhibition at 1.25 µg/mL in the series on RAW264.7 [9] worked out at 14.1%.
Consider `COc1cc(CCC(=O)c2cccc(O)c2)ccc1O`, for which the viability at 24 h, 10 ug/ml in series [1] is 91%. In addition, in the series on RAW264.7 [2], the IC50 came to 9.78 µg/mL (≈ 35.9 µM). The viability at 24 h, 1.25 ug/ml in series [3] was found to be 100%. Also, the inhibition at 2.5 µg/mL in the series on RAW264.7 [4] worked out at 19.8%. Moreover, in the series on RAW264.7 [5], the inhibition at 10 µg/mL is 50.9%. Further, the viability at 24 h, 2.5 ug/ml in series [6] was 98.9%. In addition, the viability at 24 h, 5 ug/ml in [7] is 96.1%. Also, the inhibition at 5 µg/mL in the series on RAW264.7 [8] turned out to be 23.2%. Moreover, the inhibition at 1.25 µg/mL with RAW264.7 [9] was determined as 5.6%.
Take `COc1ccc(OC)c(CCCc2cccc(O)c2)c1`: the viability at 24 h, 10 ug/ml in [1] came to 92.2%. Moreover, the IC50 in the series with RAW264.7 [2] was more than 10 µg/mL. For the same compound, in series [3], the viability at 24 h, 1.25 ug/ml was 101%. Further, the inhibition at 2.5 µg/mL with RAW264.7 [4] stood at 19.9%. Further, the inhibition at 10 µg/mL in the series with RAW264.7 [5] amounted to 38.9%. Further, the viability at 24 h, 2.5 ug/ml in series [6] amounted to 98.2%. In addition, the viability at 24 h, 5 ug/ml in [7] amounted to 93.5%. Besides, in the series with RAW264.7 [8], the inhibition at 5 µg/mL was found to be 36.8%. Also, the inhibition at 1.25 µg/mL in the series on RAW264.7 [9] is 1.5%.
